Measurements taken from paper PMC10458444 (Viruses, 2023).
Where a name gives a salt, the structure may show the parent alone.

Legend:
MERS-CoV PsV = assay: microbe, parasite or virus in culture; type: cell-based; conditions: Middle East respiratory syndrome-related coronavirus, 48 h, read-out: IC50, inhibition of MERS-CoV PsV infection
SARS-CoV-2 (D614) PsV = assay: microbe, parasite or virus in culture; type: cell-based; conditions: for IC50: Severe acute respiratory syndrome coronavirus 2, 48 h, read-out: IC50, inhibition of SARS-CoV-2 (D614) PsV infection
[1] = Cytotoxicity assay (CCK-8); conditions: human, HEK293T-hACE2 cells
[2] = tested on: SARS-CoV-2 Omicron BA.4 PsV; type: cell-based
SARS-CoV PsV = assay: microbe, parasite or virus in culture; type: cell-based; conditions: Severe acute respiratory syndrome coronavirus, 48 h, read-out: IC50, inhibition of SARS-CoV PsV infection
SARS-CoV-2 spike protein = SARS-CoV-2 spike protein (Severe acute respiratory syndrome coronavirus 2, UniProt P0DTC2); type: cell-based; conditions: co-incubated with PsV 1 h, HEK293T-hACE2 cells 12 h, Western blotting
[3] = tested on: SARS-CoV-2 spike-pseudovirus (D614); set-up: species or system K18-hACE2 transgenic mice; conditions: mouse, in vivo
SARS-CoV-2 PsV (D614) = assay: Time-of-addition assay; type: cell-based; conditions: compound added 8 h after the addition of SARS-CoV-2 PsV

Compound: CC(=O)c1ccc2c(c1)N(CCCN(C)C)c1ccccc1S2 [Acepromazine maleate, acepromazine maleate]
- IC50 (MERS-CoV PsV): 1580 nM
- SI, selectivity index = CC50/IC50 (SARS-CoV-2 (D614) PsV): 51.179
- IC50 (SARS-CoV-2 (D614) PsV): 1820 ± 230 nM
- CC50 at 48 h [1]: 93300 ± 11500 nM
- inhibitory activity in primary screening against Omicron (BA.4) PsV [2]: significant inhibitory activities
- IC50 (SARS-CoV PsV): 1390 nM

Compound: OCCN1CCN(CCCN2c3ccccc3Sc3ccc(Cl)cc32)CC1 [Perphenazine, perphenazine]
- IC50 (MERS-CoV PsV): 1280 nM
- SI, selectivity index = CC50/IC50 (SARS-CoV-2 (D614) PsV): 21.805
- IC50 (SARS-CoV-2 (D614) PsV): 831 ± 120 nM
- CC50 at 48 h [1]: 18100 ± 1450 nM
- inhibitory activity in primary screening against Omicron (BA.4) PsV [2]: significant inhibitory activities
- IC50 (SARS-CoV PsV): 1160 nM

Compound: CC(CN(C)C)CN1c2ccccc2Sc2ccccc21 (stereo not drawn) [Alimemazine hemitartrate, alimemazine hemitartrate]
- IC50 (MERS-CoV PsV): 1220 nM
- SI, selectivity index = CC50/IC50 (SARS-CoV-2 (D614) PsV): 111.929
- IC50 (SARS-CoV-2 (D614) PsV): 477 ± 124 nM
- CC50 at 48 h [1]: 53400 ± 10900 nM
- IC50 (SARS-CoV PsV): 356 nM

Compound: CCCCCCCCCC(=O)OCCN1CCN(CCCN2c3ccccc3Sc3ccc(C(F)(F)F)cc32)CC1 [Fluphenazine decanoate, fluphenazine decanoate]
- IC50 (MERS-CoV PsV): 2640 nM
- SI, selectivity index = CC50/IC50 (SARS-CoV-2 (D614) PsV): 15.775
- IC50 (SARS-CoV-2 (D614) PsV): 3900 ± 1090 nM
- CC50 at 48 h [1]: 61600 ± 28800 nM
- IC50 (SARS-CoV PsV): 3960 nM

Compound: teicoplanin
- effect on cleavage of S protein in cells (full-length S protein level) (SARS-CoV-2 spike protein): prevented the cleavage of S protein

Compound: CN1CCN(CCCN2c3ccccc3Sc3ccc(Cl)cc32)CC1 [Prochlorperazine maleate, prochlorperazine maleate]
- infection, luciferase gene expression in lung tissues (RT-qPCR) [3]: significantly inhibited
- viral load, HIV-1 Gag p55 and p24 protein levels in lung [3]: significant reduction in the viral load
- CC50 at 48 h [1]: 85200 ± 13900 nM
- inhibitory activity, time of addition (SARS-CoV-2 PsV (D614)): about 20%
